Laboratory results from ChEMBL document CHEMBL1201862, “PubChem BioAssay data set” (2004).
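Cells were grown in 96-well plates and exposed to each compound for 48 hours at five concentrations; endpoints were interpolated linearly between bracketing concentrations, or set to the highest concentration if not reached. The concentration for 50% growth inhibition is given as GI50.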 The source made the active and inactive calls. No stated cut-off is given here; in the data, active = GI50 up to about 1.1 µM and inactive = higher. Non-standard residues stand in square brackets, D forms with d. Residues, ends and D or L forms follow the SMILES beside them. ξ: configuration not given here. *: point of attachment. ξHyp = O=C(O)C1CC(O)CN1; Cbz = O=C(OCc1ccccc1)*

Legend:
Assay in all cases: inhibition of tumour cell growth, NCI panel, 48 h
CAKI-1 = system: CAKI-1
RXF 393 = system: RXF 393
BT-549 = system: BT-549
SN12C = system: SN12C
LOX IMVI = system: LOX IMVI
OVCAR-3 = system: OVCAR-3
PC-3 = system: PC-3
IGROV-1 = system: IGROV-1
HT-29 = system: HT-29
NCI-H460 = system: NCI-H460
OVCAR-4 = system: OVCAR-4
SK-MEL-28 = system: SK-MEL-28
OVCAR-5 = system: OVCAR-5
A549 = system: A549
NCI-H522 = system: NCI-H522
OVCAR-8 = system: OVCAR-8
MDA-MB-231 = system: MDA-MB-231
SF-539 = system: SF-539
CCRF-CEM = system: CCRF-CEM
SNB-75 = system: SNB-75

Measured: GI50

O=c1c2c3c(sc2nc(S)n1-c1ccccc1)CCCc1ccc([N+](=O)[O-])cc1-3
inactive: CAKI-1 > 100 µM | RXF 393 16.9 µM | BT-549 24.8 µM | SN12C 37.7 µM | LOX IMVI 19.3 µM | OVCAR-3 32.1 µM | PC-3 59.7 µM | IGROV-1 14.2 µM | HT-29 25.3 µM | NCI-H460 36 µM | OVCAR-4 38.9 µM | SK-MEL-28 > 100 µM | OVCAR-5 > 100 µM | A549 42.9 µM | NCI-H522 13.9 µM | OVCAR-8 28.8 µM | MDA-MB-231 > 100 µM

O=C1C(Cl)C(c2cccc(Cl)c2)N1c1ccc(-n2c(S)nc3ccccc3c2=O)cc1 (stereo unspecified)
inactive: CAKI-1 34.7 µM | RXF 393 4.08 µM | SF-539 20 µM | BT-549 39.4 µM | SN12C 15.8 µM | LOX IMVI 13.9 µM | OVCAR-3 30.5 µM | PC-3 27.7 µM | IGROV-1 5.07 µM | CCRF-CEM 23 µM | HT-29 18.8 µM | NCI-H460 16.5 µM | OVCAR-4 13.6 µM | OVCAR-5 24.9 µM | A549 28.2 µM | NCI-H522 15.1 µM | OVCAR-8 37.3 µM | MDA-MB-231 20 µM

C[C@@]1(O)C2C3CC4C5C3C1[C@](O)(C42)[C@H]5Br (stereo partly specified)
inactive: CAKI-1 > 100 µM | RXF 393 > 100 µM | SF-539 > 100 µM | BT-549 > 100 µM | SN12C > 100 µM | LOX IMVI > 100 µM | OVCAR-3 > 100 µM | PC-3 > 100 µM | IGROV-1 > 100 µM | CCRF-CEM > 100 µM | HT-29 > 100 µM | NCI-H460 > 100 µM | OVCAR-4 > 100 µM | SK-MEL-28 > 100 µM | OVCAR-5 > 100 µM | A549 > 100 µM | NCI-H522 > 100 µM | OVCAR-8 > 100 µM | MDA-MB-231 > 100 µM

NC(=O)CNC(=O)C1CC(O)CN1C(=O)OCc1ccccc1 (stereo unspecified) (Cbz-[ξHyp]-Gly-NH2)
inactive: RXF 393 > 100 µM | SNB-75 > 100 µM | BT-549 > 100 µM | SN12C > 100 µM | LOX IMVI > 100 µM | OVCAR-3 > 100 µM | PC-3 > 100 µM | IGROV-1 > 100 µM | CCRF-CEM > 100 µM | HT-29 > 100 µM | NCI-H460 > 100 µM | OVCAR-4 > 100 µM | SK-MEL-28 > 100 µM | OVCAR-5 > 100 µM | A549 > 100 µM | NCI-H522 > 100 µM | OVCAR-8 > 100 µM | MDA-MB-231 > 100 µM

CN(C)/C=N/[C@@H](C(=O)O)c1ccccc1
inactive: SNB-75 > 100 µM | BT-549 > 100 µM | SN12C > 100 µM | LOX IMVI > 100 µM | OVCAR-3 > 100 µM | PC-3 > 100 µM | IGROV-1 > 100 µM | CCRF-CEM > 100 µM | HT-29 > 100 µM | NCI-H460 > 100 µM | OVCAR-4 > 100 µM | SK-MEL-28 > 100 µM | OVCAR-5 > 100 µM | A549 > 100 µM | OVCAR-8 > 100 µM | MDA-MB-231 > 100 µM

N#Cc1ccc(-c2nc3c(N)ncnc3o2)cc1
inactive: CAKI-1 > 100 µM | RXF 393 > 100 µM | SF-539 > 100 µM | BT-549 > 100 µM | SN12C > 100 µM | LOX IMVI > 100 µM | OVCAR-3 > 100 µM | PC-3 > 100 µM | IGROV-1 > 100 µM | CCRF-CEM > 100 µM | HT-29 > 100 µM | NCI-H460 > 100 µM | SK-MEL-28 > 100 µM | OVCAR-5 > 100 µM | A549 > 100 µM | NCI-H522 > 100 µM | OVCAR-8 > 100 µM | MDA-MB-231 > 100 µM

COC(=O)C1=Nc2c(C)nn(-c3ccccc3)c2N=C(c2ccc(C)cc2)C1
inactive: CAKI-1 > 10 µM | SNB-75 > 10 µM | SF-539 > 10 µM | BT-549 > 10 µM | SN12C > 10 µM | LOX IMVI > 10 µM | OVCAR-3 > 10 µM | PC-3 > 10 µM | IGROV-1 > 10 µM | HT-29 > 10 µM | OVCAR-4 > 10 µM | SK-MEL-28 > 10 µM | A549 > 10 µM | NCI-H522 > 10 µM | OVCAR-8 > 10 µM | MDA-MB-231 > 10 µM

COc1ccc(NC(=O)/C(=N/NC(N)=S)C2C(=O)NC(=S)NC2=O)c(OC)c1
inactive: CAKI-1 > 100 µM | SNB-75 > 100 µM | SF-539 > 100 µM | BT-549 > 100 µM | SN12C > 100 µM | LOX IMVI > 100 µM | OVCAR-3 > 100 µM | PC-3 > 100 µM | IGROV-1 > 100 µM | CCRF-CEM 62.2 µM | HT-29 > 100 µM | NCI-H460 > 100 µM | OVCAR-4 > 100 µM | SK-MEL-28 > 100 µM | OVCAR-5 > 100 µM | A549 > 100 µM | NCI-H522 > 100 µM | OVCAR-8 > 100 µM | MDA-MB-231 > 100 µM

CC(=O)CC(=O)N1CCSC1=S
inactive: RXF 393 > 10 µM | SNB-75 > 10 µM | SF-539 > 10 µM | BT-549 > 10 µM | SN12C > 10 µM | LOX IMVI > 10 µM | OVCAR-3 > 10 µM | PC-3 > 10 µM | IGROV-1 > 10 µM | CCRF-CEM > 10 µM | HT-29 > 10 µM | NCI-H460 > 10 µM | SK-MEL-28 > 10 µM | OVCAR-5 > 10 µM | A549 > 10 µM | OVCAR-8 > 10 µM | MDA-MB-231 > 10 µM

CCSCCCN(CCCSCC)CCCSCC
inactive: SNB-75 > 100 µM | SF-539 > 100 µM | BT-549 > 100 µM | SN12C > 100 µM | LOX IMVI > 100 µM | OVCAR-3 > 100 µM | PC-3 > 100 µM | IGROV-1 88.3 µM | CCRF-CEM > 100 µM | HT-29 > 100 µM | NCI-H460 > 100 µM | OVCAR-4 > 100 µM | SK-MEL-28 > 100 µM | OVCAR-5 > 100 µM | A549 > 100 µM | NCI-H522 45.8 µM | OVCAR-8 > 100 µM | MDA-MB-231 > 100 µM

CN1c2ccccc2S(=O)(=O)n2c(COc3ccc(Cl)cc3)nnc21
inactive: CAKI-1 85.7 µM | RXF 393 55.1 µM | SF-539 35.5 µM | BT-549 50.6 µM | SN12C > 100 µM | LOX IMVI > 100 µM | OVCAR-3 > 100 µM | PC-3 > 100 µM | IGROV-1 > 100 µM | CCRF-CEM 75.7 µM | HT-29 > 100 µM | NCI-H460 > 100 µM | OVCAR-4 59.3 µM | SK-MEL-28 > 100 µM | OVCAR-5 > 100 µM | A549 > 100 µM | NCI-H522 31.3 µM | OVCAR-8 > 100 µM | MDA-MB-231 44.8 µM

CC1CNc2ccccc2N=C1NN (stereo unspecified)
inactive: CAKI-1 > 100 µM | RXF 393 > 100 µM | SF-539 > 100 µM | BT-549 > 100 µM | SN12C > 100 µM | LOX IMVI > 69.8 µM | OVCAR-3 > 100 µM | PC-3 > 100 µM | IGROV-1 > 100 µM | CCRF-CEM 22.7 µM | HT-29 > 100 µM | NCI-H460 > 100 µM | OVCAR-4 > 100 µM | SK-MEL-28 > 100 µM | OVCAR-5 > 100 µM | A549 > 100 µM | NCI-H522 > 100 µM | OVCAR-8 > 100 µM | MDA-MB-231 > 100 µM

O=C(c1ccccn1)C1(N2CCCCC2)CCCCC1
inactive: CAKI-1 > 100 µM | SF-539 > 100 µM | BT-549 > 100 µM | SN12C > 100 µM | LOX IMVI > 100 µM | OVCAR-3 > 100 µM | PC-3 > 100 µM | IGROV-1 87.7 µM | CCRF-CEM > 100 µM | HT-29 78 µM | OVCAR-4 > 100 µM | SK-MEL-28 > 100 µM | OVCAR-5 > 100 µM | A549 > 100 µM | NCI-H522 15.5 µM | OVCAR-8 > 100 µM | MDA-MB-231 > 100 µM

O=C(Cn1c2ccc(Br)cc2c2nc3ccccc3nc21)N/N=C/c1ccccc1
inactive: CAKI-1 > 100 µM | RXF 393 34.9 µM | SNB-75 83.9 µM | SF-539 12.9 µM | BT-549 > 100 µM | SN12C > 100 µM | OVCAR-3 > 100 µM | PC-3 > 100 µM | IGROV-1 > 100 µM | HT-29 > 100 µM | SK-MEL-28 > 100 µM | OVCAR-5 > 100 µM | A549 > 100 µM | OVCAR-8 > 100 µM | MDA-MB-231 > 100 µM

CC1CCCc2c(C#N)c(N)nc(-c3ccc(Cl)cc3)c21 (stereo unspecified)
inactive: CAKI-1 68.7 µM | RXF 393 6.87 µM | SNB-75 22.4 µM | SF-539 14.5 µM | BT-549 17.9 µM | SN12C 20.3 µM | LOX IMVI 16.6 µM | OVCAR-3 12.6 µM | PC-3 4.68 µM | IGROV-1 14.4 µM | CCRF-CEM 22.8 µM | HT-29 6.75 µM | NCI-H460 22.8 µM | SK-MEL-28 27.6 µM | OVCAR-5 15.6 µM | OVCAR-8 31 µM | MDA-MB-231 22.1 µM

CCn1c(=O)c2c(=O)[nH][nH]c2c2ccccc21
inactive: SNB-75 > 100 µM | SF-539 > 100 µM | BT-549 > 100 µM | SN12C > 100 µM | LOX IMVI > 100 µM | OVCAR-3 > 100 µM | PC-3 > 100 µM | IGROV-1 > 100 µM | CCRF-CEM > 100 µM | HT-29 > 100 µM | NCI-H460 > 100 µM | OVCAR-4 > 100 µM | SK-MEL-28 > 100 µM | OVCAR-5 > 100 µM | A549 > 100 µM | NCI-H522 > 100 µM | OVCAR-8 > 100 µM | MDA-MB-231 > 100 µM
